For the test, the target named is human 5-HT5A receptor (Homo sapiens (Human), UniProt P47898). Kind of test: Test on a human 5-HT5A receptor binding inhibition ([3H]5-CT). To be noted: membrane from HEK293 cells expressing human 5-HT5A receptor, Ki calculated from IC50. As for the experimental part: The ORF (open reading frame; protein coding region) of a human 5-HT5A receptor (Genbank AF498985) was cloned from a human hippocampus cDNA library, and then inserted into a pCR2.1 vector (Invitrogen), and Escherichia coli containing the plasmid was cultured in a large amount. Next, the full-length cDNA sequence of the human 5-HT5A receptor was analyzed, and recombined into a pCDNA3.1 vector (Invitrogen) as an expression vector and cultured in a large amount. HEK293 established cells (ATCC) derived from the human fetal kidney were seeded, the expression plasmid (1 μg) obtained above were added thereto with LIPOFECTAMINE 2000 (Invitrogen; 2 μl), the gene was transfected into HEK293 cells, and the expression cells were screened with a drug-resistant marker, Geneticin (G418 sulfate 500 μg/ml; Kanto Chemical Co., Inc.). Thus prepared recombinant cells which expressed the gene were cultured in a medium containing D-MEM (Dulbecco's modified eagle medium, Sigma), 10% FCS (Fetal calf serum: fetal bovine serum), 1% Pc./Sm (Penicillin/Streptomycin, Invitrogen), and 500 μg/ml G418 for 3 days. These experimental operations followed a manual for gene operation experiment and an instruction appended in a reagent, and the like, such as a known method (Sambrook, J. et al, Molecular Cloning-A Laboratory Manual”, Cold Spring Harabor laboratory, NY, 1989).
Sequence of human 5-HT5A receptor (P47898 whole entry): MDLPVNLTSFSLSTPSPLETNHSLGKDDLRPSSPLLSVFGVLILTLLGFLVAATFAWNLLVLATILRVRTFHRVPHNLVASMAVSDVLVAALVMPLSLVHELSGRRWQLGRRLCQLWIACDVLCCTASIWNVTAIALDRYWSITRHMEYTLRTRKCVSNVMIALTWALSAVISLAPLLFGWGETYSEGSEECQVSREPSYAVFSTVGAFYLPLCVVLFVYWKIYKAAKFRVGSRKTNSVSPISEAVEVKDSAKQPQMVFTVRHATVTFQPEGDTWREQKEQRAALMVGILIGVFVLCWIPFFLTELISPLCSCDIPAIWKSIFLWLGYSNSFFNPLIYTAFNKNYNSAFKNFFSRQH
HEK293 cells for forced expressions of a human 5-HT5A receptor were cultured in a F500 plate, and scraped with a scraper. After centrifugation, the precipitate was collected, and an incubation buffer (50 mM Tris (HCl) (pH 7.4), 10 mM MgSO4, and 0.5 mM EDTA (ethylenediamine tetraacetic acid)) was added thereto. After homogenization, it was further centrifuged, and the incubation buffer was added to the precipitate, followed by thoroughly suspending. The operation was repeated, and protein concentration was measured, thereby completing preparation of the membrane.
A solution of the compound to be tested and 100 μM 5-CT (5-carboxamidetriptamine) in DMSO was added to a 96-well plate at 2 μl/well, suspended in an incubation buffer, and a membrane from HEK293 cells for forced expressions of a human 5-HT5A receptor prepared at 200 μg/ml was added at 100 μl/well. After incubation at room temperature for 15 minutes, a [^3H]5-CT solution (2 nM [^3H]5-CT, incubation buffer) was added thereto at 100 μl/well.
Separately, 100 μl of the solution was distributed into a liquid scintillation vial, and 2 ml of Aquasol II (registered trademark) was added thereto, followed by stirring. Then, radioactivity was measured by a liquid scintillation counter. It was incubated at 37° C. for 60 minutes. The reaction mixture was sucked into 96-well GF/C filter plate that had been pre-treated with 0.2% polyethyleneimine, and washed six times with an ice-cooled, 50 mM Tris (pH 7.5) buffer. The GF/C filter plate was dried.
Microscint TMPS (registered trademark) was added thereto at 40 μl/well. Radioactivity remaining on the GF/C filter plate was measured by a top counter.
The [^3H]5-CT binding inhibiting activity by the compound to be tested in each experiment was determined as an IC50 value with a radioactivity upon addition of DMSO alone being 0% inhibition, and a radioactivity upon addition of 1 μM 5-CT being 100% inhibition. Separately, Ki values were calculated from the Kd value of the [^3H]5-CT determined from Scatchard analysis, by the following equation. Ki=IC50(1+Concentraion of ligand added/Kd(4.95 nM))

For 61 molecules, Ki results are on record in patent US8853242B2, “Nitrogenous-ring acylguanidine derivative” (Astellas Pharma Inc., priority 2009, dated 2014).

For `COc1cccc(Cl)c1-c1ncc(F)c2ccc(C(=O)N=C(N)N)cc12` [Example 203], where the note is “[3H]5-CT binding”, the inhibition constant Ki is 1 to 10 nM.
Still for that read-out and setting: as for `NC(N)=NC(=O)c1ccc2nccc(-c3cc(Cl)ccc3F)c2c1` [Example 22], the figure is 10 to 100 nM; as for `NC(N)=NC(=O)c1ccc2nccc(-c3c(F)cc(Cl)cc3F)c2c1` [Example 13], 1 to 10 nM.
As to `NC(N)=NC(=O)c1ccc2c(F)cnc(-c3ccc(F)cc3Cl)c2c1` [Example 151], the Ki ([3H]5-CT binding inhibition) is 4.1 nM.
For the molecule `NC(N)=NC(=O)c1ccc2c(F)cnc(-c3ccccc3Cl)c2c1` [Example 161], the Ki is, setting by setting: ([3H]5-CT binding inhibition) 3.4 nM; ([3H]5-CT binding) 1 to 10 nM.
In the case of `COc1cccc(F)c1-c1ncc(Cl)c2ccc(C(=O)N=C(N)N)cc12` [Example 166], the Ki ([3H]5-CT binding) was 1 to 10 nM.
On to `Cc1nc2ccc(C(=O)N=C(N)N)cc2c(-c2c(F)cccc2F)c1C` [Example 117], for which, for the setting “[3H]5-CT binding”, the Ki is 1 to 10 nM.
Still for that read-out and setting: as for `NC(N)=NC(=O)c1ccc2nccc(-c3cc(Cl)c(F)cc3F)c2c1` [Example 20], the figure is 10 to 100 nM; as for `Cc1nc2ccc(C(=O)N=C(N)N)cc2c(-c2ccccc2F)c1F` [Example 125], 10 to 100 nM; as for `Cc1cnc(-c2c(F)cccc2Cl)c2cc(C(=O)N=C(N)N)ccc12` [Example 206], 1 to 10 nM.
Still for that read-out and setting: as for `Cc1cnc2ccc(C(=O)N=C(N)N)cc2c1-c1cccc(F)c1Cl` [Example 61], the figure is 1 to 10 nM; as for `CCc1cc(-c2c(F)cc(F)cc2F)c2cc(C(=O)N=C(N)N)ccc2n1` [Example 87], 10 to 100 nM.
As to `NC(N)=NC(=O)c1ccc2nccc(-c3c(Cl)cccc3Cl)c2c1` [Example 19], the Ki ([3H]5-CT binding) is 1 to 10 nM.
Same read-out and setting: under `NC(N)=NC(=O)c1ccc2nccc(-c3ccc(F)c(C(F)(F)F)c3)c2c1` [Example 37] stands 100 to 300 nM; under `NC(N)=NC(=O)c1ccc2nccc(-c3cccc(C(F)(F)F)c3F)c2c1` [Example 28], 10 to 100 nM.
Turning to `Cc1nc2ccc(C(=O)N=C(N)N)cc2c(-c2ccc(F)cc2Cl)c1C` [Example 126], the Ki ([3H]5-CT binding) is 1 to 10 nM.
The same measure, in the same setting: as for `NC(N)=NC(=O)c1ccc2c(F)cnc(-c3ccc(Cl)cc3)c2c1` [Example 191], the figure is 10 to 100 nM.
Consider `NC(N)=NC(=O)c1ccc2c(Cl)cnc(C3CC3)c2c1` [Example 198], for which the Ki ([3H]5-CT binding) is 1 to 10 nM.
As to `NC(N)=NC(=O)c1ccc2ncc(Cl)c(-c3ccccc3F)c2c1` [Example 69], the Ki ([3H]5-CT binding) was 1 to 10 nM.
For `Cc1cc(C(=O)N=C(N)N)cc2c(C3CC3)ccnc12` [Example 71], the Ki ([3H]5-CT binding) is 10 to 100 nM.
As for `Cc1cc(-c2c(F)cc(F)cc2F)c2cc(C(=O)N=C(N)N)ccc2n1` [Example 6], the Ki is, setting by setting: ([3H]5-CT binding inhibition) 13 nM; ([3H]5-CT binding) 10 to 100 nM.
Consider `Cc1nc(-c2c(F)cc(F)cc2F)c2cc(C(=O)N=C(N)N)ccc2c1F` [Example 154], for which, under “[3H]5-CT binding”, the Ki is 1 to 10 nM.
Consider `NC(N)=NC(=O)c1cc(Cl)c2nccc(-c3c(F)cc(F)cc3F)c2c1` [Example 43], for which, for the setting “[3H]5-CT binding”, the Ki is 10 to 100 nM.
As to `Cc1nc2ccc(C(=O)N=C(N)N)cc2c(-c2ccccc2Cl)c1C` [Example 122], for the setting “[3H]5-CT binding”, the Ki is 10 to 100 nM.
With `NC(N)=NC(=O)c1ccc2nccc(-c3cc(C(F)(F)F)ccc3F)c2c1` [Example 25], the inhibition constant (Ki) ([3H]5-CT binding) was 10 to 100 nM.
On to `Cc1cc(C(=O)N=C(N)N)cc2c(-c3c(F)cc(F)cc3Cl)ccnc12` [Example 65], for which the Ki ([3H]5-CT binding) was 1 to 10 nM.
In the case of `COc1cc(F)c(-c2ccnc3ccc(C(=O)N=C(N)N)cc23)c(F)c1` [Example 59], where the note is “[3H]5-CT binding”, the Ki is 10 to 100 nM.
As for `N#Cc1ccccc1-c1nccc2ccc(C(=O)N=C(N)N)cc12` [Example 139], the Ki ([3H]5-CT binding) is 100 to 300 nM.
The same measure, in the same setting: under `NC(N)=NC(=O)c1ccc2c(F)cnc(-c3c(O)cccc3F)c2c1` [Example 216] stands 1 to 10 nM.
On to `NC(N)=NC(=O)c1ccc2c(Cl)cnc(-c3ccc(F)cc3F)c2c1` [Example 211], for which the Ki ([3H]5-CT binding inhibition) is 2.3 nM and the Ki ([3H]5-CT binding) is 1 to 10 nM.
As to `NC(N)=NC(=O)c1ccc2cccc(-c3c(F)cc(F)cc3F)c2n1` [Example 226], the Ki ([3H]5-CT binding) was 1 to 10 nM.
With `NC(N)=NC(=O)c1ccc2c(C(F)F)cnc(-c3ccccc3F)c2c1` [Example 215], the Ki ([3H]5-CT binding) is 10 to 100 nM.
For the molecule `NC(N)=NC(=O)c1ccc2c(C3CC3)cnc(-c3c(F)cccc3F)c2c1` [Example 156], the Ki ([3H]5-CT binding) is 10 to 100 nM.
Still for that read-out and setting: as for `Cc1cnc2ccc(C(=O)N=C(N)N)cc2c1-c1ccc(F)cc1F` [Example 31], the figure is 1 to 10 nM; as for `COc1cc(C#N)ccc1-c1ccnc2ccc(C(=O)N=C(N)N)cc12` [Example 36], 10 to 100 nM; as for `COc1ccc(-c2ccnc3c(C)cc(C(=O)N=C(N)N)cc23)c(Cl)c1` [Example 70], 1 to 10 nM.
As for `NC(N)=NC(=O)c1ccc2c(F)cnc(-c3c(F)cccc3Cl)c2c1` [Example 147], for the setting “[3H]5-CT binding inhibition”, the Ki was 1.6 nM.
For `NC(N)=NC(=O)c1ccc2c(F)cnc(-c3c(F)cncc3Cl)c2c1` [Example 164], the Ki was 4.7 nM ([3H]5-CT binding inhibition) and 1 to 10 nM ([3H]5-CT binding).
Regarding `NC(N)=NC(=O)c1ccc2nccc(-c3ccc(F)cc3Cl)c2c1` [Example 15], for the setting “[3H]5-CT binding”, the Ki was 1 to 10 nM.
Turning to `NC(N)=NC(=O)c1cnc2cccc(-c3c(F)cc(F)cc3F)c2c1` [Example 227], for the setting “[3H]5-CT binding”, the Ki was 10 to 100 nM.
`NC(N)=NC(=O)c1ccc2c(F)cnc(-c3ccncc3Cl)c2c1` [Example 163]: under “[3H]5-CT binding”, the Ki is 10 to 100 nM.
For the molecule `Cc1cnc2ccc(C(=O)N=C(N)N)cc2c1-c1c(F)cc(F)cc1Cl` [Example 23], the Ki ([3H]5-CT binding) was 1 to 10 nM.
For `Cc1nc2ccc(C(=O)N=C(N)N)cc2c(-c2c(F)cccc2F)c1F` [Example 123], for the setting “[3H]5-CT binding”, the Ki was 1 to 10 nM.
Take `Cc1cc(C(=O)N=C(N)N)cc2c(-c3c(F)cccc3F)ccnc12` [Example 42]: where the note is “[3H]5-CT binding”, the Ki is 1 to 10 nM.
The same measure, in the same setting: as for `NC(N)=NC(=O)c1ccc2c(F)cnc(-c3cccc(Cl)c3O)c2c1` [Example 199], the figure is 10 to 100 nM; as for `COc1cnc(-c2c(F)cccc2F)c2cc(C(=O)N=C(N)N)ccc12` [Example 197], 1 to 10 nM.
Consider `COc1ccc(-c2c(Cl)cnc3ccc(C(=O)N=C(N)N)cc23)cc1` [Example 93], for which the inhibition constant Ki ([3H]5-CT binding) is 1 to 10 nM.
As to `Cc1cc2ccc(C(=O)N=C(N)N)cc2c(-c2c(F)cccc2F)n1` [Example 155], the Ki ([3H]5-CT binding) was 10 to 100 nM.
Still for that read-out and setting: as for `NC(=O)c1cc(-c2c(F)cc(F)cc2F)c2cc(C(=O)N=C(N)N)ccc2n1` [Example 30], the figure is 10 to 100 nM; as for `COc1cccc(F)c1-c1c(C)c(C)nc2ccc(C(=O)N=C(N)N)cc12` [Example 129], 10 to 100 nM.
Take `NC(N)=NC(=O)c1ccc2nccc(-c3cc(F)ccc3Cl)c2c1` [Example 63]: the Ki ([3H]5-CT binding) is 10 to 100 nM.
On the same count and under the same terms, as for `Cc1cc(C(=O)N=C(N)N)cc2c(-c3ccc(Cl)cc3Cl)ccnc12` [Example 45], the figure is 10 to 100 nM.
Turning to `NC(N)=NC(=O)c1ccc2ncc(Cl)c(-c3ccc(F)cc3F)c2c1` [Example 60], the Ki ([3H]5-CT binding inhibition) is 1.3 nM.
Consider `NC(N)=NC(=O)c1ccc2c(F)cnc(-c3ncc(F)cc3Cl)c2c1` [Example 171], for which the Ki ([3H]5-CT binding inhibition) was 6.2 nM.
Regarding `Cc1nc2ccc(C(=O)N=C(N)N)cc2c(-c2c(F)cccc2Cl)c1C` [Example 121], the Ki ([3H]5-CT binding) was 1 to 10 nM.
Regarding `COc1cccc(F)c1-c1ncc(F)c2ccc(C(=O)N=C(N)N)cc12` [Example 159], the Ki is, setting by setting: ([3H]5-CT binding inhibition) 7.1 nM; ([3H]5-CT binding) 1 to 10 nM.
Consider `NC(N)=NC(=O)c1ccc2c(F)cnc(-c3cccc(Cl)c3F)c2c1` [Example 201], for which the Ki ([3H]5-CT binding) was 1 to 10 nM.
For the molecule `NC(N)=NC(=O)c1ccc2nccc(-c3c(F)cc(F)cc3F)c2c1` [Example 5], the Ki ([3H]5-CT binding) was 1 to 10 nM.
With `Cc1cnc2ccc(C(=O)N=C(N)N)cc2c1-c1c(F)cccc1F` [Example 32], the Ki ([3H]5-CT binding) was 1 to 10 nM.
For the molecule `Cc1nc2ccc(C(=O)N=C(N)N)cc2c(-c2ccccc2F)c1Cl` [Example 89], under “[3H]5-CT binding”, the Ki was 1 to 10 nM.
Consider `Cc1cnc(-c2c(F)cc(F)cc2F)c2cc(C(=O)N=C(N)N)ccc12` [Example 152], for which, for the setting “[3H]5-CT binding inhibition”, the Ki was 1.3 nM.
